Literature values in patent US7867716B2 (priority 2004, dated 2011).

Legend:
glucoamylase = glucoamylase (Aspergillus niger, UniProt P69328)
WT-αHL = WT-αHL (Staphylococcus aureus, UniProt P09616)
WT-αHL, sequence (P09616 27-319 limits assumed): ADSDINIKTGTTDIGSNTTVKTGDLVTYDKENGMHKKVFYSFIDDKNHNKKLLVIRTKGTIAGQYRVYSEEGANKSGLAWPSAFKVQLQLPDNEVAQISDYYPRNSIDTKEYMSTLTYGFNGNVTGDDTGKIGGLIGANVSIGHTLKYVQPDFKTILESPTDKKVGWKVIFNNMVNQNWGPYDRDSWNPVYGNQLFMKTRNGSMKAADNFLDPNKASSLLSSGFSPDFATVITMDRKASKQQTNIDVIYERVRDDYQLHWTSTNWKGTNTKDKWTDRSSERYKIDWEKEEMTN

glucoamylase, sequence (P69328 25-640 limits assumed): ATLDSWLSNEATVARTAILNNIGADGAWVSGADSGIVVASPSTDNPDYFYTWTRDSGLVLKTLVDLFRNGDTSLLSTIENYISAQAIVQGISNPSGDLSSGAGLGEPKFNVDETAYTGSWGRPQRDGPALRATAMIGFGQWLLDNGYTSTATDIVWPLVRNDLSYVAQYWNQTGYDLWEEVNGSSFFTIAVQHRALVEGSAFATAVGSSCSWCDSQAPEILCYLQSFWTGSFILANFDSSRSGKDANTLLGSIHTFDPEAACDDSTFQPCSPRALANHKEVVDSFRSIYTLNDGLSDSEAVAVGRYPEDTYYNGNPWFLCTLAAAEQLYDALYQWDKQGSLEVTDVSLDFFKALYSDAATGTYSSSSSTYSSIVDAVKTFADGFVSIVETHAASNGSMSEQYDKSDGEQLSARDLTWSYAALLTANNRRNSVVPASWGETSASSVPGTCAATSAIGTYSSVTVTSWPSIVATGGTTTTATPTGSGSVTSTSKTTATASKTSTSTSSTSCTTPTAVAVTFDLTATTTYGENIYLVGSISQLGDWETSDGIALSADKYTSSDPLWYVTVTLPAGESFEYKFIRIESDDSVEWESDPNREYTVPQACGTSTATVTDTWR

In the case of β-cyclodextrin [βCD], the “ΔS°” value (glucoamylase) is given as −90 J mol^−1 K^−1, the “Kf (trans)” value (WT-αHL) is given as 300 M⁻¹ and the “formation constant Kf for WT-αHL with βCD” value (WT-αHL) is given as 290 M⁻¹.
